Results published in patent US10899790B2, “Method for modifying T cell population” (OSAKA UNIVERSITY, priority 2016, dated 2021).

Assays:
[1] = target: T1, Retinol Dehydrogenase 10 (RDH10) (Homo sapiens, UniProt Q8IZV5); test: Inhibition of RDH10 enzyme activity (microsomal fraction of RDH10-expressed 293T, all-trans retinol to all-trans retinal, HPLC); type: biochemical; settings: final concentration of 20 μM; relative to DMSO control (FIG. 1)
T1 construct: expressed in transfected cells; host or cells: 293T (microsomal fraction)
T1 sequence (Q8IZV5 1-341): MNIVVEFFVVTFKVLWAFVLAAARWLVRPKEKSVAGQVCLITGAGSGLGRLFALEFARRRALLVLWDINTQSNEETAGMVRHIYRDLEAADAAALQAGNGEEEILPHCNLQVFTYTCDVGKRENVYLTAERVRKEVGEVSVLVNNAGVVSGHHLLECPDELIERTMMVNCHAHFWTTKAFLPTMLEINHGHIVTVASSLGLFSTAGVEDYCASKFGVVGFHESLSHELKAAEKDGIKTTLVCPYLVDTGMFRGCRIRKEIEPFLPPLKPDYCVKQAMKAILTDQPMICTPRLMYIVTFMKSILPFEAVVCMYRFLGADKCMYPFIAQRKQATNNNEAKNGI
Description: All-trans retinol, BSA, and NAD (nicotinamide adenine dinucleotide) as a coenzyme were added to a buffer for reaction (90 mM potassium phosphate buffer, pH7.4, 40 mM KCl) so as to have final concentrations of 10 μM, 10 μM, and 1 mM respectively. This mixture was taken in siliconized tubes by 200 μl for each, the microsomal fractions separated from 293T and RDH10-expressed 293T were added to separate tubes by 10 μl for each, and the mixtures were allowed to react at 37° C. for 15 minutes. After 200 μl of methanol was added to the reaction mixtures to stop the reaction, retinoid was extracted using hexane and concentrated. The concentrated retinoid was dissolved in 150 μl of acetonitrile, separated by HPLC, and subjected to the detection of ultraviolet light absorption at a wavelength of 350 nm, whereby the substrate (all-trans retinol) and the product (all-trans retinal) were detected. In addition, standard samples (all-trans retinol and all-trans retinal) were separated by HPLC and the retention times of the respective standard samples were determined in advance. The solvent for HPLC was acetonitrile: 50 mM ammonium acetate=75:25. As the separation column, Syhergi 4 μm Hydro-RP 80A (manufactured by Phenomenex) was used. In addition, the flow rate was 2.0 ml/min. The RDH10 enzyme activity was calculated by reading the amount of product per fixed time from the chart of HPLC.
All-trans retinol, BSA, and NAD (nicotinamide adenine dinucleotide) as a coenzyme were added to a buffer for reaction (90 mM potassium phosphate buffer, pH7.4, 40 mM KCl) so as to have final concentrations of 10 μM, 10 μM, and 1 mM respectively. This mixture was taken in siliconized tubes by 200 μl for each, the microsomal fraction separated from RDH10-expressed 293T was added to separate tubes by 10 μl for each. The RDH10 inhibitor dissolved in DMSO was added to each tube so as to have a final concentration of 20 μM, and the same amount of DMSO was added to the control tube. The mixture was allowed to react at 37° C. for 15 to 30 minutes, 200 μl of methanol was added to the reaction mixtures, and then retinoid was extracted using hexane and concentrated. The concentrated retinoid was dissolved in 150 μl of acetonitrile, separated by HPLC, and subjected to the detection of ultraviolet light absorption at a wavelength of 350 nm, whereby the substrate (all-trans retinol) and the product (all-trans retinal) were detected. In addition, standard samples (all-trans retinol and all-trans retinal) were separated by HPLC and the retention times of the respective standard samples were determined in advance. The solvent for HPLC was acetonitrile: 50 mM ammonium acetate=75:25. As the separation column, Syhergi 4 μm Hydro-RP 80A (manufactured by Phenomenex) was used. The flow rate was 2.0 ml/min.
The enzyme activity was determined by the waveform area of the product (all-trans retinal) with respective to the waveform area of the non-reacted substrate (all-trans retinol), and the relative value with respect to the enzyme activity in the control is illustrated in FIG. 1. The error bars indicate SD (standard deviation).

[2] = system: Healthy human-derived CD4+CD45RO+T cells; test: Effect in vitro: CD62L and CD127 expression in cultured T cells by flow cytometry; type: cell-based; settings: 20 μM; anti-CD3, anti-CD28, IL-2; vs DMSO control (FIG. 2)
Description: Healthy human-derived CD4^+CD45RO^+T cells (1×10^5) were cultured in the presence of anti-CD3 antibody (2 μg/ml), anti-CD28 antibody (2 μg/ml), IL-2 (20 IU/ml) and RDH10 inhibitors (Compound No. 16 (RDHI-032), Compound No. 17 (RDHI-033), and Compound No. 18 (RDHI-034)) (20 μM for each). In addition, DMSO was used as a control for the RDH10 inhibitor. After seven days […] resuspended in a fresh culture medium to which IL-2 was not added, and cultured for one more day. Thereafter, the expression of CD62L and CD127 in T cells was analyzed by flow cytometry. The culture solution used was X-VIVO15 to which AB serum was added to have a final concentration of 10%.

Row | Compound | RDH10 enzyme activity inhibitory action [1] | amplification of memory T cells (CD62L+CD127+T cells) [2] | effector T cells (CD62L−CD127−T cells) [2]
1 | COC(=O)[C@@]1(C)CC[C@]2(C)CC[C@]3(C)C(=CC(=O)[C@@H]4[C@@]5(C)CCC(NC(=O)/C=C\C(=O)O)C(C)(C)[C@@H]5CC[C@]43C)[C@H]2C1 (stereo partly drawn) [Compound No. 5, (Z)-4-((4aR,6aR,6bS,8aS,11S,12aS,14aR,14bS)-11-(methoxycarbonyl)-4,4,6a,6b,8a,11,14b-heptamethyl-14-oxo-1,2,3,4,4a,5,6,6a,6b,7,8,8a,9,10,11,12,12a,14,14a,14b-icosahydropicen-3-ylamino)-4-oxobut-2-enoic acid] | relatively potent | tended to amplify memory cells | –
2 | COC(=O)c1ccccc1NC(=O)NC1CC[C@]2(C)[C@H]3C(=O)C=C4[C@H]5C[C@@](C)(C(=O)OC)CC[C@]5(C)CC[C@@]4(C)[C@]3(C)CC[C@H]2C1(C)C (stereo partly drawn) [Compound No. 9, (2S,4aS,6aS,6bR,8aR,12aS,12bR,14bS)-methyl 10-(3-(2-(methoxycarbonyl)phenyl)ureido)-2,4a,6a,6b,9,9,12a-heptamethyl-13-oxo-1,2,3,4,4a,5,6,6a,6b,7,8,8a,9,10,11,12,12a,12b,13,14b-icosahydropicene-2-carboxylate] | relatively potent | – | –
3 | CCOC(=O)CNC(=O)NC1CC[C@]2(C)[C@H]3C(=O)C=C4[C@H]5C[C@@](C)(C(=O)OC)CC[C@]5(C)CC[C@@]4(C)[C@]3(C)CC[C@H]2C1(C)C (stereo partly drawn) [Compound No. 10, (2S,4aS,6aS,6bR,8aR,12aS,12bR,14bS)-methyl 10-(3-(2-ethoxy-2-oxoethyl)ureido)-2,4a,6a,6b,9,9,12a-heptamethyl-13-oxo-1,2,3,4,4a,5,6,6a,6b,7,8,8a,9,10,11,12,12a,12b,13,14b-icosahydropicene-2-carboxylate] | relatively potent | – | –
4 | COC(=O)[C@@]1(C)CC[C@]2(C)CC[C@]3(C)C(=CC(=O)[C@@H]4[C@@]5(C)CCC(NC(=O)N[C@@H](Cc6ccccc6)C(=O)O)C(C)(C)[C@@H]5CC[C@]43C)[C@H]2C1 (stereo partly drawn) [Compound No. 14, (2S)-2-(3-((4aR,6aR,6bS,8aS,11S,12aS,14aR,14bS)-11-(methoxycarbonyl)-4,4,6a,6b,8a,11,14b-heptamethyl-14-oxo-1,2,3,4,4a,5,6,6a,6b,7,8,8a,9,10,11,12,12a,14,14a,14b-icosahydropicen-3-yl)ureido)-3-phenyl propanoic acid] | relatively potent | – | –
5 | CC1(C)C(N)CC[C@]2(C)[C@H]3C(=O)C=C4[C@@H]5C[C@@](C)(C(N)=O)CC[C@]5(C)CC[C@@]4(C)[C@]3(C)CC[C@@H]12 (stereo partly drawn) [Compound No. 16, (2S,4aS,6aS,6bR,8aR,12aS,12bR,14bR)-10-amino-2,4a,6a,6b,9,9,12a-heptamethyl-13-oxo-1,2,3,4,4a,5,6,6a,6b,7,8,8a,9,10,11,12,12a,12b,13,14b-icosahydropicene-2-carboxamide] | relatively potent | amplified memory T cells | decreased
6 | CC(=O)NC1CC[C@]2(C)[C@H]3C(=O)C=C4[C@@H]5C[C@@](C)(C(N)=O)CC[C@]5(C)CC[C@@]4(C)[C@]3(C)CC[C@H]2C1(C)C (stereo partly drawn) [Compound No. 17, (2S,4aS,6aS,6bR,8aR,12aS,12bR,14bR)-10-acetamido-2,4a,6a,6b,9,9,12a-heptamethyl-13-oxo-1,2,3,4,4a,5,6,6a,6b,7,8,8a,9,10,11,12,12a,12b,13,14b-icosahydropicene-2-carboxamide] | relatively potent | amplified memory T cells | decreased
7 | CC1(C)C(NC(=O)c2ccccc2)CC[C@]2(C)[C@H]3C(=O)C=C4[C@@H]5C[C@@](C)(C(N)=O)CC[C@]5(C)CC[C@@]4(C)[C@]3(C)CC[C@@H]12 (stereo partly drawn) [Compound No. 18, (2S,4aS,6aS,6bR,8aR,12aS,12bR,14bR)-10-benzamide-2,4a,6a,6b,9,9,12a-heptamethyl-13-oxo-1,2,3,4,4a,5,6,6a,6b,7,8,8a,9,10,11,12,12a,12b,13,14b-icosahydropicene-2-carboxamide] | relatively potent | amplified memory T cells | decreased
8 | COC(=O)[C@@]1(C)CC[C@]2(C)CC[C@]3(C)C(=CC(=O)[C@@H]4[C@@]5(C)CCC(NC(=O)N6CCOCC6)C(C)(C)[C@@H]5CC[C@]43C)[C@H]2C1 (stereo partly drawn) [Compound No. 22, (2S,4aS,6aS,6bR,8aR,12aS,12bR,14bS)-methyl 2,4a,6a,6b,9,9,12a-heptamethyl-10-(morpholine-4-carboxamido)-13-oxo-1,2,3,4,4a,5,6,6a,6b,7,8,8a,9,10,11,12,12a,12b,13,14b-icosahydropicene-2-carboxylate] | exhibited the RDH10 enzyme activity inhibitory action | tended to amplify memory cells | –
9 | COC(=O)[C@@]1(C)CC[C@]2(C)CC[C@]3(C)C(=CC(=O)[C@@H]4[C@@]5(C)CCC(NC(=O)N6CCOCC6)C(C)(C)[C@@H]5CC[C@]43C)[C@@H]2C1 (stereo partly drawn) [Compound No. 23, (2S,4aS,6aS,6bR,8aR,12aS,12bR,14bR)-methyl 2,4a,6a,6b,9,9,12a-heptamethyl-10-(morpholine-4-carboxamido)-13-oxo-1,2,3,4,4a,5,6,6a,6b,7,8,8a,9,10,11,12,12a,12b,13,14b-icosahydropicene-2-carboxylate] | exhibited the RDH10 enzyme activity inhibitory action | tended to amplify memory cells | –
